Test in all cases: NCI-60 cell line screen, 48 h
Test [1] deals with SK-MEL-2 melanoma.
Test [2] concerns OVCAR-4 ovarian.
Test [3] concerns SK-MEL-5 melanoma.
The test system of test [4] is RXF 393 renal.
Test [5] concerns HT29 colon.
The subject of test [6] is NCI-H460 lung.
Test [7] relates to HCC-2998 colon.
Test [8] deals with SF-539 CNS.
Test [9] relates to CCRF-CEM leukemia.
Test [10] deals with 786-0 renal.

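Each compound was tested at five concentrations against cells in 96-well plates for 48 hours. GI50 = concentration required for 50% inhibition of growth. At the TGI there is no net growth.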

`O=C(/C=C/c1ccc([N+](=O)[O-])cc1)c1ccc2c3c(cccc13)CC2`: the GI50 in test [1] is > 100 µM; in test [2], 13.5 µM; in [3] it was 33.2 µM; in test [4], 4.47 µM; in test [5] it was 5.05 µM; in test [6], 4.23 µM. The GI50 in [7] is 26.9 µM; in [8] it was 2.63 µM; in test [9] it was 5.21 µM; in test [10], 10.2 µM. For the same compound, the TGI was > 100 µM in [1]; > 100 µM in test [2]; > 100 µM in [3]; 21.3 µM in test [4]; > 100 µM in test [5]; > 64.8 µM in test [6]. Also, the TGI in test [7] was > 78.1 µM; in test [8], 7.72 µM; in [9] it was > 100 µM; in test [10], > 88.9 µM.

For `Cc1c2c(nn1C)CSCc1cc(n(C)n1)CSc1cc(c3ccccc3c1)OCCCc1c(C(=O)O)n(C)c3c-2c(Cl)ccc13`, the GI50 was 0.165 µM in [1]; 6.76 µM in test [2]; 2.2 µM in [3]; 1.29 µM in test [4]; 3.32 µM in [5]; 3.23 µM in test [6]. The GI50 in [7] was 3.15 µM; in [8], 1.53 µM; in test [9], 1.73 µM; in test [10], 4.4 µM. Also, the TGI in test [1] was found to be 0.429 µM; in test [2] it was 22.9 µM; in [3] it was 5.22 µM; in [4] it was 3.63 µM; in test [5] it was 12.6 µM; in [6], 10.7 µM. Further, the TGI in [7] stood at 13.4 µM; in test [8] it was 7.33 µM; in [9] it was 10.6 µM; in test [10], 17.8 µM.

For `Cn1cc(C2=C(c3cccc(OCC(O)CO)c3)C(=O)NC2=O)c2ccccc21` (stereo not given), the GI50 in [1], in test [2], in [3], in [4], in test [5] and in test [6] was > 25 µM throughout. In addition, the GI50 in test [7], in [8], in [9] and in [10] was > 25 µM throughout. For the same compound, the TGI in test [1], in test [2], in test [3], in [4], in [5] and in [6] was > 25 µM each time. Also, the TGI in test [7], in test [8], in test [9] and in [10] was > 25 µM each time.

As to `CS[C@]12C(=O)C[C@@]3(C)[C@@H](CC[C@]3(O)C(=O)CO)[C@@H]1CCC1=CC(=O)CC[C@@]12C`, the TGI in test [1], in test [2], in [3], in [4], in [5] and in test [6] was > 100 µM in each case. Also, the TGI was 80.2 µM in [7], > 100 µM in [8], > 100 µM in [9] and > 100 µM in [10].

With `CCc1ccc(NC(=O)COC(=O)c2cc([N+](=O)[O-])ccc2Sc2nnnn2C)cc1`, the GI50 in test [1] was 23.3 µM; in test [2], 12.9 µM; in test [3], 4.64 µM; in test [4] it was 24 µM; in [5] it was 11.1 µM; in [6] it was 13 µM. The GI50 in test [7] is 15.7 µM; in [8] it was 16.7 µM; in [9], 9.11 µM; in test [10], 21.1 µM. In addition, the TGI is > 100 µM in test [1]; 26.9 µM in [2]; 18 µM in test [3]; 62 µM in test [4]; 29.3 µM in [5]; 33.3 µM in [6]. For the same compound, the TGI in test [7] was 29.2 µM; in test [8], 42.8 µM; in test [9] it was 78.3 µM; in test [10], 72.9 µM.

Turning to `COc1ccc2c(c1)C(=O)c1c-2c(N(C)C)nc2ccccc12`, the GI50 in test [1] was > 100 µM; in test [2], 90.2 µM; in [3], > 100 µM; in [4], > 100 µM; in test [5], > 100 µM; in test [6], > 100 µM. Further, the GI50 in [7], in [8], in test [9] and in [10] was > 100 µM each time. For the same compound, the TGI in test [1], in [2], in test [3], in [4], in test [5] and in [6] was > 100 µM each time. In addition, the TGI in test [7], in [8], in test [9] and in test [10] was > 100 µM throughout.

As to `COC(=O)c1cc(Cl)ccc1NC(=O)c1ccc([N+](=O)[O-])cc1`, the TGI was > 100 µM in test [1]; 12.3 µM in test [2]; > 100 µM in [3]; 65.6 µM in test [4]; 35.1 µM in test [5]; > 100 µM in [6]. Further, the TGI was > 100 µM in [7], 49.1 µM in test [8], 80.4 µM in [9] and 38.2 µM in test [10].

As for `Cc1ccc(C)c(NC(=O)CC/C(=N\NC(=O)c2c(O)ccc3ccccc23)C(C)C(=O)c2ccc(O)cc2)c1` (stereo not given), the TGI in [1], in [2], in [3], in test [4], in [5] and in test [6] was > 100 µM throughout. Besides, the TGI was > 100 µM in test [7], 80.5 µM in [8], 71 µM in [9] and > 100 µM in test [10].
